Assay results published in ChEMBL document CHEMBL1136439, “Synthesis and bioactivities of nitronyl nitroxide and RGD containing pseudopeptides” (2003).
Where a SMILES comes first, the peptide text is derived from it. The star is where a group is joined. X1 = CC1(C)N(O)C(c2ccc(OCC(=O)*)cc2)=[N+]([O-])C1(C)C

How the values were obtained:
Oryctolagus cuniculus [1] = organism: Oryctolagus cuniculus; assay: Maximum rate of ADP induced platelet aggregation was determined in rabbit blood at a dose of 10-5 mol/L (in vitro); format: functional
Oryctolagus cuniculus [2] = organism: Oryctolagus cuniculus; assay: Maximum rate of ADP induced platelet aggregation was determined in rabbit blood at a dose of 10-6 mol/L (in vitro); format: functional
Oryctolagus cuniculus [3] = organism: Oryctolagus cuniculus; assay: Maximum rate of ADP induced platelet aggregation was determined in rabbit blood at a dose of 10-7 mol/L (in vitro); format: functional
Oryctolagus cuniculus [4] = organism: Oryctolagus cuniculus; assay: Maximum rate of PAF induced platelet aggregation was determined in rabbit blood at a dose of 10-5 mol/L (in vitro); format: functional
Oryctolagus cuniculus [5] = organism: Oryctolagus cuniculus; assay: Maximum rate of PAF induced platelet aggregation was determined in rabbit blood at a dose of 10-6 mol/L (in vitro); format: functional
Oryctolagus cuniculus [6] = organism: Oryctolagus cuniculus; assay: Maximum rate of PAF induced platelet aggregation was determined in rabbit blood at a dose of 10-7 mol/L (in vitro); format: functional
Rattus norvegicus [7] = assay: Effect on the dry thrombus weight in male wistar rat was determined(in vivo); format: functional
Rattus norvegicus [8] = assay: Effect on the wet thrombus weight in male wistar rat was determined(in vivo); format: functional; design: unit not given beside the values
Rattus norvegicus [9] = organism: Rattus norvegicus; assay: Compound tested for inhibition of Ach-induced vasorelaxation was determined in rat aortic strips; format: functional, Aorta; design: concentration or dose not given beside the values

Structure (SMILES)	Am (Oryctolagus cuniculus [1]) [%]	Am (Oryctolagus cuniculus [2]) [%]	Am (Oryctolagus cuniculus [3]) [%]	Am (Oryctolagus cuniculus [4]) [%]	Am (Oryctolagus cuniculus [5]) [%]	Am (Oryctolagus cuniculus [6]) [%]	Activity (Rattus norvegicus [7])	Activity (Rattus norvegicus [8])	Inhibition (Rattus norvegicus [9]) [%]
N=C(N)NCCC[C@H](N)C(=O)NCC(=O)N[C@@H](CC(=O)O)C(=O)N[C@@H](Cc1ccccc1)C(=O)O (H-RGDF-OH)	10.13	24.15	33.76	10.22	25.18	51.88	3.94	25.61	2.6
CC1(C)N(O)C(c2ccc(OCC(=O)N[C@@H](CCCN=C(N)N)C(=O)NCC(=O)N[C@@H](CC(=O)O)C(=O)N[C@@H](CO)C(=O)O)cc2)=[N+]([O-])C1(C)C (X1-RGDS-OH)	16.91	40.05	51.46	22.05	35.11	52.1	5.08	32.09	88.9
N=C(N)NCCC[C@H](N)C(=O)NCC(=O)N[C@@H](CC(=O)O)C(=O)N[C@@H](CO)C(=O)O	17.02	40.14	53.55	22.66	37.1	54.21	6.68	36.96	3.2
CC1(C)N(O)C(c2ccc(OCC(=O)O)cc2)=[N+]([O-])C1(C)C	51.6	51.96	54.68	52.92	52.98	54.25	6.17	38.1	99.2
CC(C)[C@H](NC(=O)[C@H](CC(=O)O)NC(=O)CNC(=O)[C@H](CCCN=C(N)N)NC(=O)COc1ccc(C2=[N+]([O-])C(C)(C)C(C)(C)N2O)cc1)C(=O)O (X1-RGDV-OH)	11.85	24.99	49.98	20.45	33.22	50.88	4.07	29.49	91.2
CC1(C)N(O)C(c2ccc(OCC(=O)N[C@@H](CCCN=C(N)N)C(=O)NCC(=O)N[C@@H](CC(=O)O)C(=O)N[C@@H](Cc3ccccc3)C(=O)O)cc2)=[N+]([O-])C1(C)C (X1-RGDF-OH)	10.21	20.66	35.25	9.98	24.26	50.02	3.16	24.3	88.9
CC(=O)Oc1ccccc1C(=O)O [ASPIRIN]	30.01	42.58	54.89	29.99	36.98	53.42	3.99	28.11	–
CC(C)[C@H](NC(=O)[C@H](CC(=O)O)NC(=O)CNC(=O)[C@@H](N)CCCNC(=N)N)C(=O)O (H-RGDV-OH)	12.07	28.9	50.06	20.5	35.11	52.66	5.13	32.62	2.4
